Test results reported in BindingDB's records for doi:10.1016/j.bmc.2020.115327 (Punjabi University, 2020).

Molecular target: Signal transducer and activator of transcription 3 (Homo sapiens, UniProt P40763)
Assay: Inhibition of STAT3 in human K562 cells assessed as reduction in STAT3 phosphorylation

Signal transducer and activator of transcription 3, sequence (P40763 whole entry): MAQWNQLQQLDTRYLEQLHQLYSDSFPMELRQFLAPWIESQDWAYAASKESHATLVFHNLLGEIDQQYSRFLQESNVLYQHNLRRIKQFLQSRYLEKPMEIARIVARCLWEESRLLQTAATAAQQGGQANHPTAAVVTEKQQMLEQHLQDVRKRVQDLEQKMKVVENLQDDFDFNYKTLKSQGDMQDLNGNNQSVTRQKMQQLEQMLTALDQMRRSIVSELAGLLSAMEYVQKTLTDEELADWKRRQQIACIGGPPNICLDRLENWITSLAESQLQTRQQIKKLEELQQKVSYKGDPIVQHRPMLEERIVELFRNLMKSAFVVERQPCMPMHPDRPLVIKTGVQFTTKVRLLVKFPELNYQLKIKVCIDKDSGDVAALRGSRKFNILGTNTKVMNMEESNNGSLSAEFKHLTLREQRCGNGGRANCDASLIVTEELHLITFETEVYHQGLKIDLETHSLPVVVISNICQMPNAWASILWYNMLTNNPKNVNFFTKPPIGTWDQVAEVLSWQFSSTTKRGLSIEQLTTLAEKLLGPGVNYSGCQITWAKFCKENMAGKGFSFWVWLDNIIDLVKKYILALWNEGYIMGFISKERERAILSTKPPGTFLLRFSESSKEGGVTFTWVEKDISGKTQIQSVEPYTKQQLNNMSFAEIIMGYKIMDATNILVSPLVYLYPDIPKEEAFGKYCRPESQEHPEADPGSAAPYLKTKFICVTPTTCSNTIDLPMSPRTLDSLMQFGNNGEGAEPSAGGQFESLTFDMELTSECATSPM

IC50	SMILES
5.8 µM	CCc1ccc(Nc2nc3cc(NC(=O)c4ccccc4)ccc3o2)cc1
18.9 µM	CCc1ccc(Nc2nc3cc(N)ccc3o2)cc1
